Experiments:
[1] = Caco-2 cell monolayer membrane transport assay; conditions: human, A-B; for Papp A→B: Caco-2, Papp A-B; for recovery: Caco-2, Recovery rate in mass
Text: Caco-2 Cell Monolayer Membrane Transport Assay
Human-derived colorectal adenocarcinoma cell line Caco-2 cell monolayer model was used to study the bidirectional transport of the target compounds from the apical (AP) side to the basolateral (BL) side and from BL side to AP side. HPLC was used for quantitative analysis to calculate transport parameters, apparent permeability coefficient (Papp) and the efflux ratio.

[2] = MTT assay, proliferation inhibition; type: cell-based; conditions: Homo sapiens, LN-18 gastric cancer, read-out: Proliferation inhibition rate
Text: (§1) 1. Cytotoxicity Assay Using Human Tumor Cell Lines
(§2) Paclitaxel was used as the positive drug.

HeLa cervical cancer = assay: MTT assay, proliferation inhibition; type: cell-based; conditions: Homo sapiens, read-out: Proliferation inhibition rate
Text: as §1, §2

MCF-7 breast cancer = assay: MTT assay, proliferation inhibition; type: cell-based; conditions: Homo sapiens, MCF7, read-out: Proliferation inhibition rate
Text: as §1, §2

DU145 prostate cancer = assay: MTT assay, proliferation inhibition; type: cell-based; conditions: Homo sapiens, DU-145, read-out: Proliferation inhibition rate
Text: as §1, §2

BGC-823 gastric cancer = assay: MTT assay, proliferation inhibition; type: cell-based; conditions: Homo sapiens, read-out: Proliferation inhibition rate
Text: as §1, §2

[3] = tested on: A549 non-small cell lung cancer; assay: MTT assay, proliferation inhibition; type: cell-based; conditions: Homo sapiens, read-out: Proliferation inhibition rate
Text: as §1, §2

LNCaP prostate cancer = assay: MTT assay, proliferation inhibition; type: cell-based; conditions: Homo sapiens, read-out: Proliferation inhibition rate
Text: as §1, §2

MDA-MB-436 breast cancer = assay: MTT assay, proliferation inhibition; type: cell-based; conditions: Homo sapiens, read-out: Proliferation inhibition rate
Text: as §1, §2

B16 melanoma = assay: MTT assay, proliferation inhibition; type: cell-based; conditions: read-out: Proliferation inhibition rate
Text: as §1, §2

HL60 leukemia = assay: MTT assay, proliferation inhibition; type: cell-based; conditions: Homo sapiens, HL-60, read-out: Proliferation inhibition rate
Text: as §1, §2

A375 melanoma = assay: MTT assay, proliferation inhibition; type: cell-based; conditions: Homo sapiens, A-375, read-out: Proliferation inhibition rate
Text: as §1, §2

K562 leukemia = assay: MTT assay, proliferation inhibition; type: cell-based; conditions: Homo sapiens, read-out: Proliferation inhibition rate
Text: as §1, §2

HT29 colon cancer = assay: MTT assay, proliferation inhibition; type: cell-based; conditions: Homo sapiens, HT-29, read-out: Proliferation inhibition rate
Text: as §1, §2

[4] = tested on: NCI-H460 non-small cell lung cancer; assay: MTT assay, proliferation inhibition; type: cell-based; conditions: Homo sapiens, read-out: Proliferation inhibition rate
Text: as §1, §2

A2780 ovarian cancer = assay: MTT assay, proliferation inhibition; type: cell-based; conditions: Homo sapiens, read-out: Proliferation inhibition rate
Text: as §1, §2

HCT 116 colon cancer = assay: MTT assay, proliferation inhibition; type: cell-based; conditions: Homo sapiens, read-out: Proliferation inhibition rate
Text: as §1, §2

[5] = tested on: breast cancer cell line MCF-7; assay: IC50 values on breast cancer cell line MCF-7; type: cell-based; conditions: Homo sapiens, MCF7, 72 h, read-out: MCF-7(IC50, nM)
Text: From the activity evaluation data of the above-mentioned preliminary screen, it can be seen that the series of taxanes derivatives synthesized in the present invention have activity (although the activity of PCMI-43 is weakened). Afterward, most of the compounds are picked up from these derivatives to examine their IC50 values on breast cancer cell line MCF-7. Paclitaxel is used as the positive control drug. Experiments for each compound were independently repeated for three times and multiple holes were used in each experiment. The exposure time of drugs was 72 hours.

[6] = Mean, Caco-2, mean of two samples

Row | SMILES | Papp A→B ([1]; Sample-01, Caco-2, Sample-01) | Papp A→B ([1]; Sample-02, Caco-2, Sample-02) | recovery [1, 6] | recovery ([1]; Sample-01, Caco-2, Sample-01) | recovery ([1]; Sample-02, Caco-2, Sample-02) | inhibition at 1 µM [2] | inhibition at 1 µM (HeLa cervical cancer) | inhibition at 1 µM (MCF-7 breast cancer) | inhibition at 1 µM (DU145 prostate cancer) | inhibition at 1 µM (BGC-823 gastric cancer) | inhibition at 1 µM [3] | inhibition at 1 µM (LNCaP prostate cancer) | inhibition at 1 µM (MDA-MB-436 breast cancer) | inhibition at 1 µM (B16 melanoma) | inhibition at 1 µM (HL60 leukemia) | inhibition at 1 µM (A375 melanoma) | inhibition at 1 µM (K562 leukemia) | inhibition at 1 µM (HT29 colon cancer) | inhibition at 1 µM [4] | inhibition at 1 µM (A2780 ovarian cancer) | also measured
1 | CO[C@H]1C[C@H]2OC[C@@]2(OC(C)=O)[C@H]2[C@H](OC(=O)c3ccccc3)[C@]3(O)C[C@H](OC(=O)[C@H](O)[C@@H](NC(=O)c4ccccc4)c4ccccc4)C(C)=C([C@@H](OC(=O)N(C)C)C(=O)[C@]12C)C3(C)C [PCMI-23] | 3.21 ×10⁻⁶ cm/s | 2.68 ×10⁻⁶ cm/s | 87.1% | 100% | 74% | 96.3% | 99.8% | 93.5% | 84.8% | 94.5% | 77.8% | 81.8% | 84.8% | 80.8% | 97.2% | 87.7% | 93.8% | 87.9% | 83.3% | 94.8% | inhibition at 1 µM (HCT 116 colon cancer): 78.3%
2 | CO[C@H]1C[C@H]2OC[C@@]2(OC(C)=O)[C@H]2[C@H](OC(=O)c3ccccc3)[C@]3(O)C[C@H](OC(=O)[C@H](O)[C@@H](NC(=O)OC(C)(C)C)c4ccccn4)C(C)=C([C@@H](OC(=O)N(C)C)C(=O)[C@]12C)C3(C)C [PCMI-24] | 2.93 ×10⁻⁶ cm/s | 3.1 ×10⁻⁶ cm/s | 100% | 106% | 94.8% | 94% | 100% | 82.3% | 84.7% | 93.5% | 73.8% | 81.1% | 76.3% | 78.9% | 98.1% | 86.8% | 92.2% | 88.1% | 83.6% | 95.5% | inhibition at 1 µM (HCT 116 colon cancer): 81.1%
3 | COC(=O)O[C@H]1C(=O)[C@]2(C)[C@@H](OC)C[C@H]3OC[C@@]3(OC(C)=O)[C@H]2[C@H](OC(=O)c2ccccc2)[C@]2(O)C[C@H](OC(=O)[C@H](O)[C@@H](NC(=O)c3ccccc3)c3ccccc3)C(C)=C1C2(C)C [PCMI-27] | 4.44 ×10⁻⁶ cm/s | 4.31 ×10⁻⁶ cm/s | 95.6% | 99.3% | 91.9% | 96.3% | 99.5% | 95.3% | 83.3% | 94.1% | 74.8% | 82.6% | 83.3% | 79.2% | 97.4% | 103% | 94.5% | 87.3% | 80.4% | 94.1% | inhibition at 1 µM (HCT 116 colon cancer): 78.3%
4 | COC(=O)O[C@H]1C(=O)[C@]2(C)[C@@H](OC)C[C@H]3OC[C@@]3(OC(C)=O)[C@H]2[C@H](OC(=O)c2ccccc2)[C@]2(O)C[C@H](OC(=O)[C@H](O)[C@@H](NC(=O)N(C)C)c3ccccc3)C(C)=C1C2(C)C [PCMI-29] | 9.53 ×10⁻⁶ cm/s | 7.33 ×10⁻⁶ cm/s | 99.4% | 102% | 97% | 97.7% | 97.3% | 91.3% | 86.7% | 90.8% | 78.1% | 84.3% | 75.7% | 80.6% | 96.8% | 92.8% | 90.8% | 81.7% | 85.2% | 92.5% | Papp A→B [1, 6]: 8.43 ×10⁻⁶ cm/s; inhibition at 1 µM (HCT 116 colon cancer): 68.7%
5 | CCSC(=O)O[C@H]1C(=O)[C@]2(C)[C@@H](OC)C[C@H]3OC[C@@]3(OC(C)=O)[C@H]2[C@H](OC(=O)c2ccccc2)[C@]2(O)C[C@H](OC(=O)[C@H](O)[C@@H](NC(=O)OC(C)(C)C)c3ccccc3)C(C)=C1C2(C)C [PCMI-30] | 5.78 ×10⁻⁶ cm/s | 3.59 ×10⁻⁶ cm/s | 76.5% | 70.4% | 82.6% | 95% | 101% | 95.8% | 90.3% | 94.9% | 75.8% | 86.2% | 81.3% | 81.7% | 98.5% | 96.9% | 92.6% | 87.8% | 85.8% | 95.6% | Papp A→B [1, 6]: 4.68 ×10⁻⁶ cm/s; inhibition at 1 µM (HCT 116 colon cancer): 65.5%
6 | CO[C@H]1C(=O)[C@]2(C)[C@@H](OC(=O)N(C)C)C[C@H]3OC[C@@]3(OC(C)=O)[C@H]2[C@H](OC(=O)c2ccccc2)[C@]2(O)C[C@H](OC(=O)[C@H](O)[C@@H](NC(=O)c3ccccc3)c3ccccc3)C(C)=C1C2(C)C [PCMI-32] | 3.16 ×10⁻⁶ cm/s | 3.38 ×10⁻⁶ cm/s | 81.9% | 82.1% | 81.6% | 92.2% | 103% | 102% | 87.5% | 95.1% | 74.5% | 83.4% | 74.4% | 77.8% | 97.8% | 90.4% | 91% | 89.8% | 86.6% | 95.8% | inhibition at 1 µM (HCT 116 colon cancer): 57.7%; IC50 [5]: 64.67 ± 0.18 nM
7 | CO[C@H]1C(=O)[C@]2(C)[C@@H](OC(=O)N(C)C)C[C@H]3OC[C@@]3(OC(C)=O)[C@H]2[C@H](OC(=O)c2ccccc2)[C@]2(O)C[C@H](OC(=O)[C@H](O)[C@@H](NC(=O)OC(C)(C)C)c3ccccn3)C(C)=C1C2(C)C [PCMI-33] | 4.27 ×10⁻⁶ cm/s | 4.54 ×10⁻⁶ cm/s | 94.9% | 95.8% | 94% | 93.2% | 103% | 83.5% | 86.3% | 94.1% | 74.1% | 83.6% | 76.2% | 81.8% | 97.8% | 90.3% | 91.1% | 89.1% | 87.8% | 94.7% | inhibition at 1 µM (HCT 116 colon cancer): 56%; IC50 [5]: 46.63 ± 0.14 nM
8 | COC(=O)O[C@H]1C[C@H]2OC[C@@]2(OC(C)=O)[C@H]2[C@H](OC(=O)c3ccccc3)[C@]3(O)C[C@H](OC(=O)[C@H](O)[C@@H](NC(=O)c4ccccc4)c4ccccc4)C(C)=C([C@@H](OC)C(=O)[C@]12C)C3(C)C [PCMI-37] | 3.23 ×10⁻⁶ cm/s | 3.41 ×10⁻⁶ cm/s | 80.6% | 81.2% | 80% | 98.3% | 102% | 103% | 88.5% | 95.7% | 80% | 85.5% | 86.1% | 85.3% | 97% | 97.4% | 94.5% | 89.7% | 89.5% | 96.4% | inhibition at 1 µM (HCT 116 colon cancer): 67.4%
9 | COC(=O)O[C@H]1C[C@H]2OC[C@@]2(OC(C)=O)[C@H]2[C@H](OC(=O)c3ccccc3)[C@]3(O)C[C@H](OC(=O)[C@H](O)[C@@H](NC(=O)OC(C)(C)C)c4ccccn4)C(C)=C([C@@H](OC)C(=O)[C@]12C)C3(C)C [PCMI-38] | 4.71 ×10⁻⁶ cm/s | 4.35 ×10⁻⁶ cm/s | 121% | 122% | 120% | 96.6% | 102% | 106% | 89.2% | 95.7% | 80.3% | 82.4% | 85.9% | 83.3% | 97.4% | 88.3% | 94.7% | 89.8% | 88.7% | 96.5% | inhibition at 1 µM (HCT 116 colon cancer): 64%

Source: patent US10253007B2, “Taxanes compounds, preparation method therefor, and uses thereof” (Jiangsu Tasly Diyi Pharmaceutical Co., Ltd., priority 2013, dated 2019)
